This note sets out measurements from patent publication US10709697B2, “Bis-amines, compositions, and uses related to CXCR4 inhibition” (Emory University, priority 2015, dated 2020).

One test has as its target T1, CXCR4 (Homo sapiens, UniProt P61073).
T1 construct: endogenous in cells; host or cells: MDA-MB-231
The experiment in a line: Primary binding affinity screening (competition with biotinylated TN14003). On the procedure:
The compounds were initially screened with a binding affinity assay. […] MDA-MB-231 cells were pre-incubated with compounds at concentrations of 1, 10, 100, and 1000 nM, then incubated with biotinylated TN14003 and streptavidin-conjugated rhodamine to determine the binding efficiency of the new compounds to the CXCL12 binding domain of CXCR4. […] Thus, this screening is a semi-quantitative, first pass measure of the level of activity.
For binding affinity assay, 2×10^4 MDA-MB-231 cells in 300 μL of cell culture medium were seeded in an 8-well slide chamber 2 days before the experiments were conducted. Various concentrations of different compounds (1, 10, 100, or 1000 nM) were added to the separate wells and incubated for 10 min at room temperature, and then the cells were fixed in 4% ice-cold paraformaldehyde. The cells were rehydrated in phosphate-buffered saline (PBS). The slides were subsequently incubated for 30 min at room temperature with 0.05 μg/mL biotinylated TN14003, washed three times with PBS, and incubated in streptavidin-rhodamine (1:150 dilution; Jackson ImmunoResearch Laboratories, West Grove, Pa.) for 30 min at room temperature. Finally, the slides were washed with PBS and mounted in an anti-fade mounting solution (Molecular Probes, Eugene, Oreg.), and the samples were analyzed on a Nikon Eclipse E800 microscope.

Test [1] relates to CXCR4/CXCL12-mediated chemotaxis and invasion. The experiment in a line: Matrigel invasion assay. The class given is cell-based. The following applies: for Invasion Assay: Table 2; for Invasion: Table 3, concentration used 100 nM; for inhibition at 0.1 µM: single concentration of 100 nM, CXCL12 as chemoattractant, FIG. 2, read-out: inhibitory rate, Matrigel invasion. The source says: To model in vitro metastasis, a Matrigel® invasion assay was used as the functional assay. […] A layer of Matrigel® matrix-coated permeable support (8 μm pore diameter) separates the upper and lower chambers.

Test [2] has as its system carrageenan-induced mouse paw edema. The test can be described thus: In vivo suppression against carrageenan-induced paw edema. To be noted: for Carageenan: Table 3, mice dosed 10 mg of compound per kg. On the procedure: CXCR4 plays a role in the recruitment of inflammatory cells to sites of inflammation. Blocking CXCR4 is a therapeutic strategy in inflammatory diseases. A carrageenan-induced mouse paw edema model as an efficient model to evaluate the in vivo CXCR4 antagonistic activity for CXCR4 inhibitors.
Acute inflammation was induced by subcutaneous injection of 50 μL of λ-carrageenan (1% w/v in saline) into one of the hind paws of the female C57BL/6J mice (Jackson Laboratories); the other hind paw was injected with 50 μL of saline, which was used as a non-inflammation control. The selected compounds were dissolved in 10% DMSO and 90% of 45% (2-hydroxypropyl)-β-cyclodextrin (CD) in PBS. In the treatment group, compounds IIg, IIk, IIm and IIn were administered intraperitoneally (i.p.) at 10 mg/kg daily, while TN14003 was administered at 300 μg/kg, i.p., daily, 30 min following carrageenan challenge. The rationale for using 300 μg/kg for TN14003 was that this concentration was reported to be the minimum concentration needed to achieve the maximum efficacy of this compound in a […] metastasis animal model. See Yoon et al. CXC chemokine receptor-4 antagonist blocks both growth of primary tumor and metastasis of head and neck cancer in xenograft mouse models. Cancer Res., 67 (2007), pp. 7518-7524. Control animals received corresponding i.p. injections of the vehicle. The animals were sacrificed 74 h after carrageenan challenge and 2 h after the last injection of the selected compounds. The final paws were photographed and measured for thickness from the “palm” to the back of the paw with a caliper. These were compared to the volume of carrageenan-untreated contralateral paw to obtain the edema volume; the volume of the contralateral paw was subtracted from the volume of the carrageenan injected paw to obtain the edema volume. The inflammation-suppression percentage was calculated by comparing the drug-treated group to the control group.
(In general: In the carrageenan paw model, swelling and tenderness develop within hours.)

The mark [3] stands for this setting: effective concentration = lowest concentration with significant reduction of rhodamine fluorescence, MDA-MB-231 cells, tested at 1, 10, 100, 1000 nM.

T1 sequence (P61073 whole entry): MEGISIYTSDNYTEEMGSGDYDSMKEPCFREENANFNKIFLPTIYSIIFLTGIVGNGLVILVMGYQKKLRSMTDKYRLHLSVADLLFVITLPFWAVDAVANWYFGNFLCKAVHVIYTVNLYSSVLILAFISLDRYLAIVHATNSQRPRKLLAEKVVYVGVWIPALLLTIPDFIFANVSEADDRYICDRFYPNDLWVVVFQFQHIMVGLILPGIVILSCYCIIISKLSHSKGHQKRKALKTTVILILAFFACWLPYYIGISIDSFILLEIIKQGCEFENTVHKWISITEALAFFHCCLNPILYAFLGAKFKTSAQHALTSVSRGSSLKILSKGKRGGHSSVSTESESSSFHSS

Consider `Fc1cccc(NCc2ccc(CNc3cccc(F)c3)nc2)c1` [2,5-pyridine H 3-F Phenyl, N,N′-(Pyridine-2,5-diylbis(methylene))bis(3-fluoroaniline)], for which the EC on CXCR4 (Table 2) was found to be 10 nm. The “Invasion Assay” value in test [1] stood at 50%.
The corresponding values for `CCc1ccc(NCc2ccc(CNc3ccc(CC)cc3)nc2)cc1` [2,5-pyridine H 4-Et Phenyl, N′-(Pyridine-2,5-diylbis(methylene))bis(4-ethylaniline)] are 1 nm and 64%.
At CXCR4 (Table 3), `CCc1ccccc1NCc1cccc(CNc2ccccc2CC)n1` [2,6-Bis(2-ethylanilinomethyl)pyridine] returned an EC of 1 nM. The compound further gave an Invasion in test [1] of 59%. The Carageenan in test [2] was 18.1%.
For `Fc1cccc(NCc2cccc(CNc3cccc(F)c3)n2)c1` [2,6-Bis(3-fluoroanilinomethyl)pyridine] the same measures were 10 nM, 50% and 20.3%.
The corresponding values for `COc1cccc(NCc2cccc(CNc3cccc(OC)c3)n2)c1` [2,6-Bis(3-methoxyanilinomethyl)pyridine] are 100 nM, 37% and 20.1%.
As for `c1cc(CN2CCCNCCNCCCNCC2)ccc1CN1CCCNCCNCCCNCC1` [AMD3100, reference compound], the EC on CXCR4 (Table 3) and on CXCR4 (setting [3]) was 1000 nM in each case. Besides, the Invasion in test [1] turned out to be 62%.
`c1cc(CN2CCCC2)nc(CN2CCCC2)c1` [IIa, 2,6-Bis(pyrrolidin-1-ylmethyl)pyridine]: the EC at CXCR4 (setting [3]) was 1 nM.
On CXCR4 (setting [3]), `c1cc(CN2CCCCC2)nc(CN2CCCCC2)c1` [IIb, 2,6-Bis(piperidin-1-ylmethyl)pyridine] gave an EC of 1 nM. Also, the inhibition at 0.1 µM in test [1] stood at 65.3%.
For `c1cc(CN2CCOCC2)nc(CN2CCOCC2)c1` [IIc, 2,6-Bis(morpholinomethyl)pyridine] the same measures were 100 nM and 68.9%.
For `CN(Cc1cccc(CN(C)c2ccc(F)cc2)n1)c1ccc(F)cc1` [IIe, N,N′-(Pyridine-2,6-diylbis(methylene))bis(4-fluoro-N-methylaniline)] the same measures were 1000 nM and less than 50%.
On CXCR4 (setting [3]), `CN(Cc1cccc(CN(C)Cc2ccccc2Cl)n1)Cc1ccccc1Cl` [IIf, N,N′-(Pyridine-2,6-diylbis(methylene))bis(1-(2-chlorophenyl)-N-methylmethanamine)] showed an EC of more than 1000 nM.
Regarding `CN(Cc1cccc(Cl)c1)Cc1cccc(CN(C)Cc2cccc(Cl)c2)n1` [IIg, N,N′-(Pyridine-2,6-diylbis(methylene))bis(1-(3-chlorophenyl)-N-methylmethanamine)], at CXCR4 (setting [3]), the EC was determined as 10 nM. Further, the inhibition at 0.1 µM in test [1] amounted to 88.6%.
`CN(Cc1cccc(CN(C)Cc2ccccc2F)n1)Cc1ccccc1F` [IIh, N,N′-(Pyridine-2,6-diylbis(methylene))bis(1-(2-fluorophenyl)-N-methylmethanamine)]: the EC on CXCR4 (setting [3]) worked out at 1000 nM.
The same measure, in the same setting: next, `CN(Cc1cccc(F)c1)Cc1cccc(CN(C)Cc2cccc(F)c2)n1` [IIi, N,N′-(Pyridine-2,6-diylbis(methylene))bis(1-(3-fluorophenyl)-N-methylmethanamine)]: more than 1000 nM.
The compound `CN(Cc1ccc(F)cc1)Cc1cccc(CN(C)Cc2ccc(F)cc2)n1` [IIj, N,N′-(Pyridine-2,6-diylbis(methylene))bis(1-(4-fluorophenyl)-N-methylmethanamine)] showed an EC on CXCR4 (setting [3]) of 1000 nM.
Compound `CCN(Cc1ccccc1)Cc1cccc(CN(CC)Cc2ccccc2)n1` [IIl, N,N′-(Pyridine-2,6-diylbis(methylene))bis(N-benzylethanamine)] came in with an EC at CXCR4 (setting [3]) of more than 1000 nM.
`c1ccc(CN(Cc2cccc(CN(Cc3ccccc3)CC3CC3)n2)CC2CC2)cc1` [IIm, N,N′-(Pyridine-2,6-diylbis(methylene))bis(N-benzyl-1-cyclopropylmethanamine)]: on CXCR4 (setting [3]), the EC is 1 nM. In addition, the inhibition at 0.1 µM in test [1] was found to be 100%.
`CN(Cc1cccnc1)Cc1cccc(CN(C)Cc2cccnc2)n1` [IIo, N,N′-(Pyridine-2,6-diylbis(methylene))bis(N-methyl-1-(pyridin-3-yl)methanamine)] returned an EC on CXCR4 (setting [3]) of more than 1000 nM.
At CXCR4 (setting [3]), `CN(Cc1ccncc1)Cc1cccc(CN(C)Cc2ccncc2)n1` [IIp, N,N′-(Pyridine-2,6-diylbis(methylene))bis(N-methyl-1-(pyridin-4-yl)methanamine)] came in with an EC of more than 1000 nM.
For `c1cc(CN2CCCC2)ccc1CN1CCCC1` [Ia, 1,4-Bis(pyrrolidin-1-ylmethyl)benzene], the EC on CXCR4 (setting [3]) is given as 1000 nM.
At CXCR4 (setting [3]), `CN(Cc1ccc(CN(C)Cc2ccccc2Cl)cc1)Cc1ccccc1Cl` [If, N,N′-(1,4-Phenylenebis(methylene))bis(1-(2-chlorophenyl)-N-methylmethanamine)] returned an EC of more than 1000 nM.
At CXCR4 (setting [3]), `CN(Cc1ccc(CN(C)Cc2cccc(Cl)c2)cc1)Cc1cccc(Cl)c1` [Ig, N,N′-(1,4-Phenylenebis(methylene))bis(1-(3-chlorophenyl)-N-methylmethanamine)] gave an EC of 1000 nM.
`CN(Cc1ccc(CN(C)Cc2ccccc2F)cc1)Cc1ccccc1F` [Ih, N,N′-(1,4-Phenylenebis(methylene))bis(1-(2-fluorophenyl)-N-methylmethanamine)]: at CXCR4 (setting [3]), the EC is given as more than 1000 nM.
At CXCR4 (setting [3]), `CN(Cc1ccc(CN(C)Cc2cccc(F)c2)cc1)Cc1cccc(F)c1` [Ii, N,N′-(1,4-Phenylenebis(methylene))bis(1-(3-fluorophenyl)-N-methylmethanamine)] displayed an EC of more than 1000 nM.
In turn, `COc1cccc(CN(C)Cc2ccc(CN(C)Cc3cccc(OC)c3)cc2)c1` [Ik, N,N′-(1,4-Phenylenebis(methylene))bis(1-(3-methoxyphenyl)-N-methylmethanamine)] yielded an EC on CXCR4 (setting [3]) of 10 nM. The inhibition at 0.1 µM in test [1] was less than 50%.
`CCN(Cc1ccccc1)Cc1ccc(CN(CC)Cc2ccccc2)cc1` [Il, N,N′-(1,4-Phenylenebis(methylene))bis(N-benzylethanamine)] displayed an EC on CXCR4 (setting [3]) of 1000 nM.
The compound `c1ccc(CN(Cc2ccc(CN(Cc3ccccc3)CC3CC3)cc2)CC2CC2)cc1` [Im, N,N′-(1,4-Phenylenebis(methylene))bis(N-benzyl-1-cyclopropylmethanamine)] returned an EC on CXCR4 (setting [3]) of 1000 nM.
On CXCR4 (setting [3]), `CN(Cc1ccc(CN(C)Cc2ccccn2)cc1)Cc1ccccn1` [In, N,N′-(1,4-Phenylenebis(methylene))bis(N-methyl-1-(pyridin-2-yl)methanamine)] came in with an EC of more than 1000 nM.
Take `CN(Cc1ccc(CN(C)Cc2cccnc2)cc1)Cc1cccnc1` [Io, N,N′-(1,4-Phenylenebis(methylene))bis(N-methyl-1-(pyridin-3-yl)methanamine)]: the EC on CXCR4 (setting [3]) is reported as more than 1000 nM.
On CXCR4 (setting [3]), `CN(Cc1ccncc1)Cc1ccc(CN(C)Cc2ccncc2)cc1` [Ip, N,N′-(1,4-Phenylenebis(methylene))bis(N-methyl-1-(pyridin-4-yl)methanamine)] showed an EC of more than 1000 nM.
In the case of `Cc1cccc(NCc2ccc(CNc3cccc(C)c3)nc2)c1` [N,N′-(Pyridine-2,5-diylbis(methylene))bis(3-methylaniline)], the EC at CXCR4 (Table 2) turned out to be 100 nm. This compound also yielded an EC on CXCR4 (Table 3) of 1 nM. Besides, in test [1], the “Invasion Assay” value was 60.2% and the Invasion worked out at 58%.
Turning to TN14003 [reference compound], the “inflammation-suppression percentage (paw edema)” value in test [2] (300 μg/kg i.p. daily, female C57BL/6J mice, 74 h after carrageenan challenge) came to 48%.
